Reference: US20080182267A1, “METHOD FOR PREDICTING A DRUG TRANSPORT CAPABILITY BY ABCG2 POLYMORPHISMS” (BANYU PHARMACEUTICAL CO., Ltd., priority 2002, published 2008)

What was measured:
ABCG2 (Gln141Lys mutant) = assay: Cytotoxicity by sulforhodamine B dye-staining, clone 3-28 (ABCG2 Gln141Lys); conditions: pig
Procedure: (§1) Among the polymorphic mutations identified in Example 1, two mutations—G34A and C421A—having a high possibility to affect the function of the ABCG2 polypeptide were prepared and introduced into animal cells as an endeavor to analyze their functions. Preparation of the mutated ABCG2 genes was conducted by PCR and a point mutation was introduced. […] As a control, a plasmid expressing the wild type (WT) ABCG2 and the vector plasmid pcDNA3.1(+) alone without the ABCG2 gene were used and those four kinds of expression plasmids were introduced to an animal cell (porcine kidney cell line) LLC-PK1 by lipofection method (Lipofectamine; Gibco BRL). Stable transfectants were selected with 1,500 μg/ml of Geneticin (Gibco BRL) for two weeks and cell lines were established. To determine the expressed level of ABCG2 in each cell line, total RNA was extracted from each transfectant cells and HeLa cells with Trizol (Gibco BRL). Seven microgram of the total RNA extracted from each clone of cell and full length ABCG2 cDNA (2.2 kb) probe labeled with ^32P were used for Northern hybridization. […]
(§2) All of the incubations were carried out at 37° C. under the humidified atmosphere containing 5% of carbon dioxide. The cytotoxicity of anticancer drugs was determined by sulforhodamine B dye-staining method and compared with each other. […]

[1] = test system: LLC-PK1 cell line (1-58) expressing the wild type ABCG2; assay: Cytotoxicity by sulforhodamine B dye-staining, clone 1-58 (wild type ABCG2); conditions: among the four transfectant clones C4, 1-58, 2-51, 3-28
Procedure: as §1, §2

ABCG2 (wild type) = assay: as above; conditions: pig
Procedure: as §1, §2

ABCG2 (Val12Met mutant) = assay: Cytotoxicity by sulforhodamine B dye-staining, clone 2-51 (ABCG2 Val12Met); conditions: pig
Procedure: as §1, §2

[2] = test system: LLC-PK1 cell line (C4) transfected with vector alone; assay: Cytotoxicity by sulforhodamine B dye-staining, clone C4 (vector alone); assay type: cell-based, porcine; conditions: Sus scrofa, no ABCG2, 72 hours, 37° C., read-out: IC50 for cell viability
Procedure: as §1, §2

Compound: CC[C@@]1(O)C(=O)OCc2c1cc1n(c2=O)Cc2cc3ccccc3nc2-1 [Camptothecin, camptothecin]
- IC50 at 72 h (ABCG2 (Gln141Lys mutant)): 26.8 nM
- difference in terms of the resistance among the cells [1]: no significant difference
- IC50 at 72 h (ABCG2 (wild type)): 21.3 nM
- IC50 at 72 h (ABCG2 (Val12Met mutant)): 12.2 nM
- IC50 [2]: 8.7 nM
